Legend:
Type in all cases: in vivo
barnyard grass [1] = assay: Test Example 1: weedkilling efficacy, preemergent weed treatment in the submerged state; A: barnyard grass; conditions: treatment dosage 252 g/ha
Summary of the method: (§1)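 Visual scores against set criteria were taken 3 weeks after treatment. Compounds, as diluted emulsions at specified g/ha, went onto the water surface of 4 cm-flooded alluvial soil pots on the day weeds were sown and 2.5-leaf rice was transplanted; greenhouse held 25–30 °C.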

bulrush [2] = assay: Test Example 1: weedkilling efficacy, preemergent weed treatment in the submerged state; B: bulrush; conditions: treatment dosage 252 g/ha
Summary of the method: as §1

oval-leafed pondweed [3] = assay: Test Example 1: weedkilling efficacy, preemergent weed treatment in the submerged state; C: oval-leafed pondweed; conditions: treatment dosage 252 g/ha
Summary of the method: as §1

transplanted rice = assay: Test Example 1: preemergent weed treatment in the submerged state, effect on crop; a: transplanted rice; conditions: treatment dosage 252 g/ha
Summary of the method: as §1

barnyard grass [4] = assay: Test Example 2: weedkilling efficacy, growth period weed treatment in the submerged state; A: barnyard grass; conditions: treatment dosage 252 g/ha
Summary of the method: (§2)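 Barnyard grass, bulrush and oval-leafed pondweed sown in alluvial soil under 4 cm flooding, greenhouse 25 to 30° C. At 1-2 leaf stage, water-diluted emulsion applied to the water surface at stated g/ha dosages; effects scored 3 weeks later.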

bulrush [5] = assay: Test Example 2: weedkilling efficacy, growth period weed treatment in the submerged state; B: bulrush; conditions: treatment dosage 252 g/ha
Summary of the method: as §2

oval-leafed pondweed [6] = assay: Test Example 2: weedkilling efficacy, growth period weed treatment in the submerged state; C: oval-leafed pondweed; conditions: treatment dosage 252 g/ha
Summary of the method: as §2

crabgrass [7] = assay: Test Example 3: weedkilling efficacy through soil treatment; D: crabgrass; conditions: treatment dosage 315 g/ha
Summary of the method: (§3)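 Crop and weed responses were judged three weeks after a uniform surface spray of the water-diluted emulsion at the given g/ha rate. Seeds sat beneath about 1.5 cm of sterilized diluvial soil, and boxes stood in a greenhouse at 25 to 30° C.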

green foxtail [8] = assay: Test Example 3: weedkilling efficacy through soil treatment; E: green foxtail; conditions: treatment dosage 315 g/ha
Summary of the method: as §3

wild oat [9] = assay: Test Example 3: weedkilling efficacy through soil treatment; G: wild oat; conditions: treatment dosage 315 g/ha
Summary of the method: as §3

black-grass [10] = assay: Test Example 3: weedkilling efficacy through soil treatment; H: black-grass; conditions: treatment dosage 315 g/ha
Summary of the method: as §3

Italian ryegrass [11] = assay: Test Example 3: weedkilling efficacy through soil treatment; I: Italian ryegrass; conditions: treatment dosage 315 g/ha
Summary of the method: as §3

Indian mallow [12] = assay: Test Example 3: weedkilling efficacy through soil treatment; K: Indian mallow; conditions: treatment dosage 315 g/ha
Summary of the method: as §3

redroot pigweed [13] = assay: Test Example 3: weedkilling efficacy through soil treatment; L: redroot pigweed; conditions: treatment dosage 315 g/ha
Summary of the method: as §3

fig-leafed goosefoot [14] = assay: Test Example 3: weedkilling efficacy through soil treatment; M: fig-leafed goosefoot; conditions: treatment dosage 315 g/ha
Summary of the method: as §3

chickweed [15] = assay: Test Example 3: weedkilling efficacy through soil treatment; N: chickweed; conditions: treatment dosage 315 g/ha
Summary of the method: as §3

catchweed [16] = assay: Test Example 3: weedkilling efficacy through soil treatment; O: catchweed; conditions: treatment dosage 315 g/ha
Summary of the method: as §3

birds-eye speedwell = assay: Test Example 3: weedkilling efficacy through soil treatment; p: birds-eye speedwell; conditions: treatment dosage 315 g/ha
Summary of the method: as §3

directly sown rice [17] = assay: Test Example 3: soil treatment, effect on crop; b: directly sown rice; conditions: treatment dosage 315 g/ha
Summary of the method: as §3

corn [18] = assay: Test Example 3: soil treatment, effect on crop; c: corn; conditions: treatment dosage 315 g/ha
Summary of the method: as §3

soybean [19] = assay: Test Example 3: soil treatment, effect on crop; d: soybean; conditions: treatment dosage 315 g/ha
Summary of the method: as §3

wheat [20] = assay: Test Example 3: soil treatment, effect on crop; e: wheat; conditions: treatment dosage 315 g/ha
Summary of the method: as §3

beet [21] = assay: Test Example 3: soil treatment, effect on crop; f: beet; conditions: treatment dosage 315 g/ha
Summary of the method: as §3

crabgrass [22] = assay: Test Example 4: weedkilling efficacy by foliar treatment; D: crabgrass; conditions: treatment dosage 315 g/ha
Summary of the method: (§4)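 Seeds are spot-sown into sterilized diluvial soil and covered with about 1.5 cm of soil. After 14 days' greenhouse growth at 25 to 30° C, plants are sprayed on stems and leaves with diluted emulsion at the stated g/ha rate, then scored at 3 weeks.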

green foxtail [23] = assay: Test Example 4: weedkilling efficacy by foliar treatment; E: green foxtail; conditions: treatment dosage 315 g/ha
Summary of the method: as §4

wild oat [24] = assay: Test Example 4: weedkilling efficacy by foliar treatment; G: wild oat; conditions: treatment dosage 315 g/ha
Description: Testing of Weedkilling Efficacy by Foliar Treatment
Sterilized diluvial soil was introduced into 21 cm long, 13 cm wide, 7 cm deep plastic boxes, and seeds of crabgrass, green foxtail, barnyard grass, wild oat, black-grass, Italian ryegrass, common wind-grass, Indian mallow, redroot pigweed, fig-leafed goosefoot, chickweed, catchweed, birds-eye speedwell, corn, soybean, rice, wheat, beet and rapeseed were each spot-sown, and covered with about 1.5 cm of soil, then the plants were grown in a greenhouse at 25 to 30° C.
After they had grown for 14 days, emulsions of compounds of the present invention prepared according to compounding example 2 were diluted with water to give the specified dosages, and applied uniformly onto the stem and leaf parts with a small sprayer. 3 weeks after the pesticide treatment the effect on each type of plant was investigated on the basis of the assessment criteria of test example 1.
A: barnyard grass, B: bulrush, C: oval-leafed pondweed, D: crabgrass, E: green foxtail, F: barnyard grass, G: wild oat, H: black-grass, I: Italian ryegrass, J: common wind-grass, K: Indian mallow, L: redroot pigweed, M: fig-leafed goosefoot, N: chickweed, O: catchweed, p: birds-eye speedwell, a: transplanted rice, b: directly sown rice, c: corn, d: soybean, e: wheat, f: beet, g: rapeseed
Further, pesticide dosage (g/ha) indicates the concentration regulated such that treatment was with only the stated number of grams (g), when calculated per hectare (ha).

black-grass [25] = assay: Test Example 4: weedkilling efficacy by foliar treatment; H: black-grass; conditions: treatment dosage 315 g/ha
Summary of the method: as §4

Italian ryegrass [26] = assay: Test Example 4: weedkilling efficacy by foliar treatment; I: Italian ryegrass; conditions: treatment dosage 315 g/ha
Summary of the method: as §4

Indian mallow [27] = assay: Test Example 4: weedkilling efficacy by foliar treatment; K: Indian mallow; conditions: treatment dosage 315 g/ha
Summary of the method: as §4

redroot pigweed [28] = assay: Test Example 4: weedkilling efficacy by foliar treatment; L: redroot pigweed; conditions: treatment dosage 315 g/ha
Summary of the method: as §4

fig-leafed goosefoot [29] = assay: Test Example 4: weedkilling efficacy by foliar treatment; M: fig-leafed goosefoot; conditions: treatment dosage 315 g/ha
Summary of the method: as §4

chickweed [30] = assay: Test Example 4: weedkilling efficacy by foliar treatment; N: chickweed; conditions: treatment dosage 315 g/ha
Summary of the method: as §4

catchweed [31] = assay: Test Example 4: weedkilling efficacy by foliar treatment; O: catchweed; conditions: treatment dosage 315 g/ha
Summary of the method: as §4

directly sown rice [32] = assay: Test Example 4: foliar treatment, effect on crop; b: directly sown rice; conditions: treatment dosage 315 g/ha
Summary of the method: as §4

corn [33] = assay: Test Example 4: foliar treatment, effect on crop; c: corn; conditions: treatment dosage 315 g/ha
Summary of the method: as §4

soybean [34] = assay: Test Example 4: foliar treatment, effect on crop; d: soybean; conditions: treatment dosage 315 g/ha
Summary of the method: as §4

wheat [35] = assay: Test Example 4: foliar treatment, effect on crop; e: wheat; conditions: treatment dosage 315 g/ha
Summary of the method: as §4

beet [36] = assay: Test Example 4: foliar treatment, effect on crop; f: beet; conditions: treatment dosage 315 g/ha
Summary of the method: as §4

Compound: CC1=C(c2ccccc2)C(=O)N(C(C)(C)C(=O)Nc2cc(C(F)(F)F)ccn2)CO1 [B-2-57]
- A (barnyard grass) weedkilling efficacy grade (barnyard grass [1]): 5 (weed kill ratio 90% or more, (practically complete withering))
- B (bulrush) weedkilling efficacy grade (bulrush [2]): 5 (weed kill ratio 90% or more, (practically complete withering))
- C (oval-leafed pondweed) weedkilling efficacy grade (oval-leafed pondweed [3]): 5 (weed kill ratio 90% or more, (practically complete withering))
- a (transplanted rice) effect on crop grade (transplanted rice): 4 (weed kill ratio 70% or more, less than 90%)
- A (barnyard grass) weedkilling efficacy grade (barnyard grass [4]): 5 (weed kill ratio 90% or more, (practically complete withering))
- B (bulrush) weedkilling efficacy grade (bulrush [5]): 5 (weed kill ratio 90% or more, (practically complete withering))
- C (oval-leafed pondweed) weedkilling efficacy grade (oval-leafed pondweed [6]): 5 (weed kill ratio 90% or more, (practically complete withering))
- D (crabgrass) weedkilling efficacy grade (crabgrass [7]): 5 (weed kill ratio 90% or more, (practically complete withering))
- E (green foxtail) weedkilling efficacy grade (green foxtail [8]): 5 (weed kill ratio 90% or more, (practically complete withering))
- G (wild oat) weedkilling efficacy grade (wild oat [9]): 5 (weed kill ratio 90% or more, (practically complete withering))
- H (black-grass) weedkilling efficacy grade (black-grass [10]): 5 (weed kill ratio 90% or more, (practically complete withering))
- I (Italian ryegrass) weedkilling efficacy grade (Italian ryegrass [11]): 5 (weed kill ratio 90% or more, (practically complete withering))
- K (Indian mallow) weedkilling efficacy grade (Indian mallow [12]): 5 (weed kill ratio 90% or more, (practically complete withering))
- L (redroot pigweed) weedkilling efficacy grade (redroot pigweed [13]): 5 (weed kill ratio 90% or more, (practically complete withering))
- M (fig-leafed goosefoot) weedkilling efficacy grade (fig-leafed goosefoot [14]): 4 (weed kill ratio 70% or more, less than 90%)
- N (chickweed) weedkilling efficacy grade (chickweed [15]): 4 (weed kill ratio 70% or more, less than 90%)
- O (catchweed) weedkilling efficacy grade (catchweed [16]): 5 (weed kill ratio 90% or more, (practically complete withering))
- P (birds-eye speedwell) weedkilling efficacy grade (birds-eye speedwell): 5 (weed kill ratio 90% or more, (practically complete withering))
- b (directly sown rice) effect on crop grade (directly sown rice [17]): 5 (weed kill ratio 90% or more, (practically complete withering))
- c (corn) effect on crop grade (corn [18]): 4 (weed kill ratio 70% or more, less than 90%)
- d (soybean) effect on crop grade (soybean [19]): 4 (weed kill ratio 70% or more, less than 90%)
- e (wheat) effect on crop grade (wheat [20]): 0 (weed kill ratio 5% or less (practically no effect))
- f (beet) effect on crop grade (beet [21]): 3 (weed kill ratio 40% or more, less than 70%)
- D (crabgrass) weedkilling efficacy grade (crabgrass [22]): 5 (weed kill ratio 90% or more, (practically complete withering))
- E (green foxtail) weedkilling efficacy grade (green foxtail [23]): 5 (weed kill ratio 90% or more, (practically complete withering))
- G (wild oat) weedkilling efficacy grade (wild oat [24]): 5 (weed kill ratio 90% or more, (practically complete withering))
- H (black-grass) weedkilling efficacy grade (black-grass [25]): 5 (weed kill ratio 90% or more, (practically complete withering))
- I (Italian ryegrass) weedkilling efficacy grade (Italian ryegrass [26]): 5 (weed kill ratio 90% or more, (practically complete withering))
- K (Indian mallow) weedkilling efficacy grade (Indian mallow [27]): 5 (weed kill ratio 90% or more, (practically complete withering))
- L (redroot pigweed) weedkilling efficacy grade (redroot pigweed [28]): 5 (weed kill ratio 90% or more, (practically complete withering))
- M (fig-leafed goosefoot) weedkilling efficacy grade (fig-leafed goosefoot [29]): 3 (weed kill ratio 40% or more, less than 70%)
- N (chickweed) weedkilling efficacy grade (chickweed [30]): 3 (weed kill ratio 40% or more, less than 70%)
- O (catchweed) weedkilling efficacy grade (catchweed [31]): 5 (weed kill ratio 90% or more, (practically complete withering))
- b (directly sown rice) effect on crop grade (directly sown rice [32]): 5 (weed kill ratio 90% or more, (practically complete withering))
- c (corn) effect on crop grade (corn [33]): 5 (weed kill ratio 90% or more, (practically complete withering))
- d (soybean) effect on crop grade (soybean [34]): 4 (weed kill ratio 70% or more, less than 90%)
- e (wheat) effect on crop grade (wheat [35]): 1 (weed kill ratio 5% or more, less than 20%)
- f (beet) effect on crop grade (beet [36]): 3 (weed kill ratio 40% or more, less than 70%)
